Consider seven compounds from patent US7612018B2, “Insecticides” (Syngenta Crop Protection, Inc., priority 2004, dated 2009).

Data set [1] has as its system Spodoptera littoralis. Put plainly: Systemic Insecticide Test for Spodoptera littoralis (Example B9). Format: in vivo. Particulars: for Death rate (%) after 4 days: 1st instar larvae on cut leaves, one replicate. As to the method: Four day old maize seedlings (Zea mais, variety Stoneville) are placed individual in vials containing 24 ml water into which the chemical is diluted at the prescribed concentrations (12.5, 3 and 0.8 ppm). Seedlings are allowed to grow for six days. Subsequently leaves are cut and placed in a Petri dish (3.5 cm diameter), inoculated with twelve to fifteen 1st instar S. littoralis larvae and incubated for four days in a growth chamber (25° C., 50% r.h., 18:6 L:D photo period). Number of alive insects are counted and percentage of dead calculated. Tests were conducted with one replicate.

In data set [2] the test system is Diabrotica balteata. Briefly: Activity against Diabrotica balteata (Example B2). In kind it is in vivo. The settings on record: 144 h, maize seedlings, spray 400 ppm, 2nd instar larvae, 6 days, read-out: percentage reduction in the population (% activity). As to the method: Maize seedlings are sprayed with an aqueous emulsion spray mixture comprising 400 ppm of active ingredient and, after the spray coating has dried on, populated with 10 larvae (2nd instar) of Diabrotica balteata and introduced into a plastic container. 6 days later, the percentage reduction in the population (% activity) is determined by comparing the number of dead larvae between the treated and untreated plants.

Data set [3] concerns Heliothis virescens. Put plainly: Activity against Heliothis virescens (foliar application) (Example B3). In kind it is in vivo. Particulars: 144 h, young soya plants, spray 400 ppm, 1st instar caterpillars, 6 days, read-out: percentage reduction in the population and in the feeding damage (% activity). As to the method: (§1) Young soya plants are sprayed with an aqueous emulsion spray mixture comprising 400 ppm of active ingredient and, after the spray coating has dried on, populated with 10 caterpillars (1st instar) of Heliothis virescens and introduced into a plastic container. 6 days later, the percentage reduction in the population and in the feeding damage (% activity) are determined by comparing the number of dead caterpillars and the feeding damage between the treated and untreated plants.

Data set [4] has as its system Plutella xylostella. Put plainly: Activity against Plutella xylostella (Example B7). The settings on record: 72 h, young cabbage plants, spray 400 ppm, 3rd instar caterpillars, 3 days, read-out: percentage reduction in the population and in the feeding damage (% activity). In kind it is in vivo. As to the method:
Young cabbage plants are sprayed with an aqueous emulsion spray mixture comprising 400 ppm of active ingredient and, after the spray coating has dried on, populated with 10 caterpillars (3rd instar) of Plutella xylostella and introduced into a plastic container. 3 days later, the percentage reduction in the population and in the feeding damage (% activity) are determined by comparing the number of dead caterpillars and the feeding damage between the treated and untreated plants.

Data set [5] concerns Spodoptera littoralis. Briefly: Activity against Spodoptera littoralis (Example B8). In kind it is in vivo. The settings on record: 72 h, young soya plants, spray 400 ppm, 1st instar caterpillars, 3 days, read-out: percentage reduction in the population and in the feeding damage (% activity). On the procedure: as §1, with “Spodoptera littoralis” for “Heliothis virescens”, “3” for “6”, “plants. In this test, compounds listed in the Tables above show good activity. In particular, the compounds T.64.1.136, T1.1.136, T64.1.1 and T1.1.1 have an activity of over 80%.” for “plants.”

Setting [6] is: 0.8 ppm in water of maize seedlings.
Where [7] appears, read: 3 ppm in water of maize seedlings.
Where [8] appears, read: 12.5 ppm in water of maize seedlings.

Turning to `Cc1cc(C(F)(C(F)(F)F)C(F)(F)F)ccc1NC(=O)c1cccc(C)c1C(=O)NC(C)(C)CS(C)(=O)=O` [Comp. 124, reference compound], the “Death rate (%) after 4 days” value in data set [1] (setting [6]) stood at 0%; in data set [1] (setting [7]), 20%; in data set [1] (setting [8]), 90%.
On to `Cc1cc(C(F)(C(F)(F)F)C(F)(F)F)ccc1NC(=O)c1cccc(I)c1C(=O)NC(C)(C)CS(C)(=N)=O` (centres unmarked) [Compound T1.1.1], for which the inhibition at 400 ppm in data set [2], in data set [3], in data set [4] and in data set [5] was greater than 80% in each case. Also, the “Death rate (%) after 4 days” value in data set [1] (setting [6]), in data set [1] (setting [7]) and in data set [1] (setting [8]) was 100% throughout. Besides, in data set [1] (comparison with Comp. 124, Table B9), the “insecticidal action on Spodoptera littoralis compared with the compound from the state of the art” value is listed as “substantially better insecticidal action”.
`Cc1cc(C(F)(C(F)(F)F)C(F)(F)F)ccc1NC(=O)c1cccc(Cl)c1C(=O)NC(C)(C)CS(C)(=N)=O` (centres unmarked) [Compound T1.1.136] had a melting point of 87 to 88 °C. Moreover, the inhibition at 400 ppm in data set [3] is greater than 80%. For the same compound, in data set [4], the inhibition at 400 ppm is greater than 80%. In addition, the inhibition at 400 ppm in data set [5] was greater than 80%.
For the compound `Cc1cc(C(F)(C(F)(F)F)C(F)(F)F)ccc1NC(=O)c1cccc(I)c1C(=O)NC(C)(C)CS(C)(=O)=NC(=O)OC(C)(C)C` (centres unmarked) [Compound T55.1.1], the inhibition at 400 ppm in data set [3] and in data set [4] was greater than 80% throughout.
In turn, `Cc1cc(C(F)(C(F)(F)F)C(F)(F)F)ccc1NC(=O)c1cccc(Cl)c1C(=O)NC(C)(C)CS(C)(=O)=NC(=O)OC(C)(C)C` (centres unmarked) [Compound T55.1.136] showed a melting point of 113 to 114 °C. The inhibition at 400 ppm in data set [3] is greater than 80%. For the same compound, in data set [4], the inhibition at 400 ppm is greater than 80%.
As to `Cc1cc(C(F)(C(F)(F)F)C(F)(F)F)ccc1NC(=O)c1cccc(I)c1C(=O)NC(C)(C)C/S(C)=N/C(=O)OC(C)(C)C` (centres unmarked) [Compound T64.1.1], the melting point lay in the range of 125 to 126 °C. Further, in data set [2], the inhibition at 400 ppm was greater than 80%. Moreover, the inhibition at 400 ppm in data set [3] is greater than 80%. The inhibition at 400 ppm in data set [4] was greater than 80%. Moreover, the inhibition at 400 ppm in data set [5] was greater than 80%.
`Cc1cc(C(F)(C(F)(F)F)C(F)(F)F)ccc1NC(=O)c1cccc(Cl)c1C(=O)NC(C)(C)C/S(C)=N/C(=O)OC(C)(C)C` (centres unmarked) [Compound T64.1.136]: the inhibition at 400 ppm in data set [2], in data set [3], in data set [4] and in data set [5] was greater than 80% throughout.

Broadly, the melting point is the temperature, or range, at which the solid turns liquid.
